T1: PPAR-γ (Homo sapiens, UniProt P37231)
T1 sequence (P37231 231-505 limits assumed): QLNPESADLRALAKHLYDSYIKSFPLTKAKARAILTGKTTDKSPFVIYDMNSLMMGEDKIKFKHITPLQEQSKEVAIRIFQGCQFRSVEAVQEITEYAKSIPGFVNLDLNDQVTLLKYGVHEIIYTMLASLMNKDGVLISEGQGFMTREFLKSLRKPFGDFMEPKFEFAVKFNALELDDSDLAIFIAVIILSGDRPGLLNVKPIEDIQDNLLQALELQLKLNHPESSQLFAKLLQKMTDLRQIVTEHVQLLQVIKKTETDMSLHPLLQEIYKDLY


Assays:
PPAR-γ = biological target: T1, PPAR-γ; assay: competitive radioligand binding with [3H]rosiglitazone on purified LBD
[1] = biological target: GST-DRIP-205 fusion protein (UniProt Q15648 1-1581); assay: pull-down
Sequence of GST-DRIP-205 fusion protein (Q15648 whole entry, the tested form may be a part): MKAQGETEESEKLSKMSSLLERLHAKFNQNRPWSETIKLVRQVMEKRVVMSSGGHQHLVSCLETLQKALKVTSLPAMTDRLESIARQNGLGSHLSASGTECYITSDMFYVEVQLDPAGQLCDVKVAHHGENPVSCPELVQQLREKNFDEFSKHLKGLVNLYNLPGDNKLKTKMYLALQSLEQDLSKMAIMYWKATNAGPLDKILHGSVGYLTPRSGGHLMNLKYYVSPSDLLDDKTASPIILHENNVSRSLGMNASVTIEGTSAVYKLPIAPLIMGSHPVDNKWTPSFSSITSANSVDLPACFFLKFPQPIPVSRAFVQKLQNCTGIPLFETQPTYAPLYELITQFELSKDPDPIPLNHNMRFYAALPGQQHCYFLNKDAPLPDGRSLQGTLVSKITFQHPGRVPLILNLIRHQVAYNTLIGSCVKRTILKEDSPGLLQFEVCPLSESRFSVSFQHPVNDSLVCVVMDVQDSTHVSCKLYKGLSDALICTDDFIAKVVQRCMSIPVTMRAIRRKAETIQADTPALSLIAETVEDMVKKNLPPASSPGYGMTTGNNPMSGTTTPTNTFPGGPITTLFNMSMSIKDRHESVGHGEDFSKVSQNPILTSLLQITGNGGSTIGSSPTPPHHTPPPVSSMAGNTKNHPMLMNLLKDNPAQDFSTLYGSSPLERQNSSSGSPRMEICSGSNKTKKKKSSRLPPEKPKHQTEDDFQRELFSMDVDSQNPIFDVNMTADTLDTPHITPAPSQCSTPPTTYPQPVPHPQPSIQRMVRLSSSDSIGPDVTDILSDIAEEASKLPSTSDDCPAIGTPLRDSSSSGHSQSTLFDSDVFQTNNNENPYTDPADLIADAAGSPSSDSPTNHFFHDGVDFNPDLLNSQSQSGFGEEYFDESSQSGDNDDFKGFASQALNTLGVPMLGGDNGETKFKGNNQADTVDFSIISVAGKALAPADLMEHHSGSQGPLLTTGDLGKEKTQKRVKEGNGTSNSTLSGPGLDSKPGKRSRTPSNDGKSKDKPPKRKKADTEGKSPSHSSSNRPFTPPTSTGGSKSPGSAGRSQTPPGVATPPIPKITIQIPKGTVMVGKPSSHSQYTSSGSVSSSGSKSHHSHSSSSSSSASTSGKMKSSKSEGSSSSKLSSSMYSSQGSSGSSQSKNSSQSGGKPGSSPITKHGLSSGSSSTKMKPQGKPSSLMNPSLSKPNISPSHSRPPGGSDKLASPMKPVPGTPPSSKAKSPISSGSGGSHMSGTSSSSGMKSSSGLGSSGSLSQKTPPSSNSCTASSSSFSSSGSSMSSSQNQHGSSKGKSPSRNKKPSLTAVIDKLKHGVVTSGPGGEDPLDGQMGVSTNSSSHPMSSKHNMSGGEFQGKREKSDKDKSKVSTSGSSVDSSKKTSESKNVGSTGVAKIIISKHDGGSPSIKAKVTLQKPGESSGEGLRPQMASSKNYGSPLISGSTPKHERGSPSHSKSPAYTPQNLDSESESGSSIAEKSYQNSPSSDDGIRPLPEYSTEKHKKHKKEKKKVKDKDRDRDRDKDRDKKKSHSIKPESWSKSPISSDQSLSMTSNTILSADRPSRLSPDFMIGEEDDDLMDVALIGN

Ki (PPAR-γ) [mM] | amount bound with 5-ASA (5 mM) relative to that with rosiglitazone (10^-5 M) [1] [%] | Molecule
28.7 |  | Nc1ccc(O)c(C(=O)O)c1 [5-ASA]
 | ~150 | [35S]methionine-labeled human PPAR-γ (receptor, UniProt P37231-1 1-505, looked up, [35S]methionine-labeled) MGETLGDSPIDPESDSFTDTLSANISQEMTMVDTEMPFWPTNFGISSVDLSVMEDHSHSFDIKPFTTVDFSSISTPHYEDIPFTRTDPVVADYKYDLKLQEYQSAIKVEPASPPYYSEKTQLYNKPHEEPSNSLMAIECRVCGDKASGFHYGVHACEGCKGFFRRTIRLKLIYDRCDLNCRIHKKSRNKCQYCRFQKCLAVGMSHNAIRFGRMPQAEKEKLLAEISSDIDQLNPESADLRALAKHLYDSYIKSFPLTKAKARAILTGKTTDKSPFVIYDMNSLMMGEDKIKFKHITPLQEQSKEVAIRIFQGCQFRSVEAVQEITEYAKSIPGFVNLDLNDQVTLLKYGVHEIIYTMLASLMNKDGVLISEGQGFMTREFLKSLRKPFGDFMEPKFEFAVKFNALELDDSDLAIFIAVIILSGDRPGLLNVKPIEDIQDNLLQALELQLKLNHPESSQLFAKLLQKMTDLRQIVTEHVQLLQVIKKTETDMSLHPLLQEIYKDLY
